Earlier results, collected in patent US4835149A, “Solubilization of salts of pyridine-2-thiol-1-oxide” (BASF Corporation, priority 1986, dated 1989).

Legend:
[1] = not given; remark: listed apart in the source

[O-][n+]1ccccc1[S-].[O-][n+]1ccccc1[S-].[Zn+2] [zinc salt]
solubility of the zinc salt in a composition according to U.S. Pat. No. 3,636,213 (composition having a pH of about 8): at least 200 parts per million | solubility in water at pH 8 (pH of 8): 35 to 50 parts per million | solubility in water at pH 7 (water, pH 7): 10 to 20 parts per million | solubility in benzene ([1]; benzene): 3-5 p.p.m. | solubility in chloroform ([1]; chloroform): 3400 p.p.m. | solubility in dimethyl formamide ([1]; dimethyl formamide): 8100 p.p.m. | solubility in dimethyl sulfoxide ([1]; dimethyl sulfoxide): 5.13% | solubility in ethanol ([1]; ethanol): 310 p.p.m. | solubility in petroleum oils, and most common organic solvents ([1]; petroleum oils, and most common organic solvents, in words): substantially insoluble | solubility in water ([1]; water): 10-20 p.p.m.
